Reference: the supplement of paper PMC11208160

Assay: recombinant UMI read abundance after kanamycin selection (control-corrected) (log10(CPM+1)); higher = more efficient recombination; extreme values may be limits of the assay; sequences stand for … in AGTGCAGAGAAAATCGGCCAGTTTTCTCTGCCTGCAGTCCGCATGCCGTGGGACCCCTTGGGTTCTAACCTGTTGCCTAGATTTATGCAGCGGACTGCCTTTCTCCCAAAGTGATAAACCGG…AGGTTGGTTTCACT; site = the 11-nt donor
Summary of the method: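 Reported values are log10(CPM+1) from a pooled Escherichia coli screen of donor and donor-binding-loop pairs for the IS621 bridge recombinase. Selection used IPTG (0.07 mM) plus kanamycin, against unselected plating, each in two replicates. Recombinant UMIs were amplified across the donor–target junction, sequenced, converted to CPM, averaged over replicates and scaled by control-derived factors.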
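Further: IS621 bridge recombinase in Escherichia coli cells against a fixed T5 target plasmid.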

Sequence	recombinant UMI read abundance (log10)
AGGAAGACATGGACCGGTTTTCCCGGTAATCCGTATTTGCA (site AGGAAATCTTG)	0
AGGAAGACATGGACCGGTTTTCCCGGTAATCCGTATTTGCA (site AGGAACACTGG)	0.014
AGGAAGACATGGACCGGTTTTCCCGGTAATCCGTATTTGCA (site AGGAACACTTG)	1.51
AGGAAGACATGGACCGGTTTTCCCGGTAATCCGTATTTGCA (site AGGAACACTTT)	0.0161
AGGAAGACATGGACCGGTTTTCCCGGTAATCCGTATTTGCA (site AGGAACCCTTG)	0
AGGAAGACATGGACCGGTTTTCCCGGTAATCCGTATTTGCA (site AGGAAGACTAC)	0.00471
AGGAAGACATGGACCGGTTTTCCCGGTAATCCGTATTTGCA (site AGGAAGACTAG)	0.102
AGGAAGACATGGACCGGTTTTCCCGGTAATCCGTATTTGCA (site AGGAAGACTCA)	0.0159
AGGAAGACATGGACCGGTTTTCCCGGTAATCCGTATTTGCA (site AGGAAGACTCG)	0.784
AGGAAGACATGGACCGGTTTTCCCGGTAATCCGTATTTGCA (site AGGAAGACTGG)	1.34
AGGAAGACATGGACCGGTTTTCCCGGTAATCCGTATTTGCA (site AGGAAGACTGT)	0
AGGAAGACATGGACCGGTTTTCCCGGTAATCCGTATTTGCA (site AGGAAGACTTA)	1.62
AGGAAGACATGGACCGGTTTTCCCGGTAATCCGTATTTGCA (site AGGAAGACTTC)	0.0105
AGGAAGACATGGACCGGTTTTCCCGGTAATCCGTATTTGCA (site AGGAAGACTTG)	2.88
AGGAAGACATGGACCGGTTTTCCCGGTAATCCGTATTTGCA (site AGGAAGACTTT)	2.15
AGGAAGACATGGACCGGTTTTCCCGGTAATCCGTATTTGCA (site AGGAAGCCTGG)	0
AGGAAGACATGGACCGGTTTTCCCGGTAATCCGTATTTGCA (site AGGAAGCCTTG)	0
AGGAAGACATGGACCGGTTTTCCCGGTAATCCGTATTTGCA (site AGGAAGCCTTT)	0
AGGAAGACATGGACCGGTTTTCCCGGTAATCCGTATTTGCA (site AGGAAGGCTAG)	0
AGGAAGACATGGACCGGTTTTCCCGGTAATCCGTATTTGCA (site AGGAAGGCTTC)	0
AGGAAGACATGGACCGGTTTTCCCGGTAATCCGTATTTGCA (site AGGAAGGCTTG)	1.84
AGGAAGACATGGACCGGTTTTCCCGGTAATCCGTATTTGCA (site AGGAAGTCTCG)	0
AGGAAGACATGGACCGGTTTTCCCGGTAATCCGTATTTGCA (site AGGAAGTCTTA)	0.81

Sequence	recombinant UMI read abundance (log10)
AGGAAGACATGGACCGGTTTTCCCGGTAATCCGTATTTGCA (site AGGAAGTCTTG)	1.05
AGGAAGACATGGACCGGTTTTCCCGGTAATCCGTATTTGCA (site AGGAATACTAG)	0
AGGAAGACATGGACCGGTTTTCCCGGTAATCCGTATTTGCA (site AGGAATACTTC)	0
AGGAAGACATGGACCGGTTTTCCCGGTAATCCGTATTTGCA (site AGGAATACTTG)	1.12
AGGAAGACATGGACCGGTTTTCCCGGTAATCCGTATTTGCA (site AGGAATGCTTG)	0
AGGAAGACATGGACCGGTTTTCCCGGTAATCCGTATTTGCA (site AGGACGACTAG)	0.0203
AGGAAGACATGGACCGGTTTTCCCGGTAATCCGTATTTGCA (site AGGACGACTTC)	0.00604
AGGAAGACATGGACCGGTTTTCCCGGTAATCCGTATTTGCA (site AGGACGACTTG)	0.36
AGGAAGACATGGACCGGTTTTCCCGGTAATCCGTATTTGCA (site AGGACGGCTTG)	0.00854
AGGAAGACATGGACCGGTTTTCCCGGTAATCCGTATTTGCA (site AGGACTACTTG)	0
AGGAAGACATGGACCGGTTTTCCCGGTAATCCGTATTTGCA (site AGGAGCACTTG)	0.0101
AGGAAGACATGGACCGGTTTTCCCGGTAATCCGTATTTGCA (site AGGAGGACTGG)	0
AGGAAGACATGGACCGGTTTTCCCGGTAATCCGTATTTGCA (site AGGAGGACTTG)	0
AGGAAGACATGGACCGGTTTTCCCGGTAATCCGTATTTGCA (site AGGAGGACTTT)	0.0142
AGGAAGACATGGACCGGTTTTCCCGGTAATCCGTATTTGCA (site AGGAGGCCTTG)	0
AGGAAGACATGGACCGGTTTTCCCGGTAATCCGTATTTGCA (site AGGATAACTTG)	0.855
AGGAAGACATGGACCGGTTTTCCCGGTAATCCGTATTTGCA (site AGGATGACTCG)	0.0201
AGGAAGACATGGACCGGTTTTCCCGGTAATCCGTATTTGCA (site AGGATGACTTA)	0.0119
AGGAAGACATGGACCGGTTTTCCCGGTAATCCGTATTTGCA (site AGGATGACTTG)	0.688
AGGAAGACATGGACCGGTTTTCCCGGTAATCCGTATTTGCA (site AGGATGTCTTG)	0
AGGAAGACATGGACCGGTTTTCCCGGTAATCCGTATTTGCA (site AGGCAGACTAG)	0
AGGAAGACATGGACCGGTTTTCCCGGTAATCCGTATTTGCA (site AGGCAGACTTC)	0.0244
AGGAAGACATGGACCGGTTTTCCCGGTAATCCGTATTTGCA (site AGGCAGACTTG)	1.49

Sequence	recombinant UMI read abundance (log10)
AGGAAGACATGGACCGGTTTTCCCGGTAATCCGTATTTGCA (site AGGCAGGCTTG)	0.0104
AGGAAGACATGGACCGGTTTTCCCGGTAATCCGTATTTGCA (site AGGCATACTTG)	0
AGGAAGACATGGACCGGTTTTCCCGGTAATCCGTATTTGCA (site AGGCCGACTTG)	0.00452
AGGAAGACATGGACCGGTTTTCCCGGTAATCCGTATTTGCA (site AGGGAAACTTG)	0
AGGAAGACATGGACCGGTTTTCCCGGTAATCCGTATTTGCA (site AGGGAGACTCG)	0
AGGAAGACATGGACCGGTTTTCCCGGTAATCCGTATTTGCA (site AGGGAGACTTA)	0.00967
AGGAAGACATGGACCGGTTTTCCCGGTAATCCGTATTTGCA (site AGGGAGACTTG)	1.32
AGGAAGACATGGACCGGTTTTCCCGGTAATCCGTATTTGCA (site AGGGAGTCTTG)	0
AGGAAGACATGGACCGGTTTTCCCGGTAATCCGTATTTGCA (site AGGGTGACTTG)	0.161
AGGAAGACATGGACCGGTTTTCCCGGTAATCCGTATTTGCA (site AGGTACACTTG)	1.06
AGGAAGACATGGACCGGTTTTCCCGGTAATCCGTATTTGCA (site AGGTAGACTGG)	0
AGGAAGACATGGACCGGTTTTCCCGGTAATCCGTATTTGCA (site AGGTAGACTTG)	1.88
AGGAAGACATGGACCGGTTTTCCCGGTAATCCGTATTTGCA (site AGGTAGACTTT)	0.0208
AGGAAGACATGGACCGGTTTTCCCGGTAATCCGTATTTGCA (site AGGTAGCCTTG)	0
AGGAAGACATGGACCGGTTTTCCCGGTAATCCGTATTTGCA (site AGGTGGACTTG)	0.577
AGGAAGACATGGACCGGTTTTCCCGGTAATCCGTATTTGCA (site AGTAACACTTG)	0.00423
AGGAAGACATGGACCGGTTTTCCCGGTAATCCGTATTTGCA (site AGTAAGACTGG)	0
AGGAAGACATGGACCGGTTTTCCCGGTAATCCGTATTTGCA (site AGTAAGACTTG)	1.25
AGGAAGACATGGACCGGTTTTCCCGGTAATCCGTATTTGCA (site AGTAAGACTTT)	0.006
AGGAAGACATGGACCGGTTTTCCCGGTAATCCGTATTTGCA (site AGTAAGCCTTG)	0
AGGAAGACATGGACCGGTTTTCCCGGTAATCCGTATTTGCA (site AGTAGGACTTG)	0.855
AGGAAGACATGGACCGGTTTTCCCGGTAATCCGTATTTGCA (site AGTTAGACTTG)	1
